Measurements: ChEMBL document CHEMBL1152417, “The identification and optimisation of novel and selective diamide neuropeptide Y Y2 receptor antagonists” (Bioorg Med Chem Lett, 2009)

Test system: Brain
Assay: Drug level in rat brain assessed as tissue binding
Type: ADME, tissue-based

Structure (SMILES): O=C(Cc1ccccc1)Nc1ccc(N2CCN(C(=O)c3ccccc3)CC2)c(Cl)c1
- Brain tissue binding (percent bound): 99%

Structure (SMILES): CC(C)(C(=O)Nc1ccc(N2CCN(C(=O)c3ccccc3)CC2)c(Cl)c1)c1ccccc1
- Brain tissue binding (percent bound): 99.5%

Structure (SMILES): O=C(Nc1ccc(N2CCN(C(=O)c3ccccc3)CC2)c(Cl)c1)C(c1ccccc1)c1ccccn1 (racemic)
- Brain tissue binding (percent bound): 99.7%
